Consider ten molecules from patent publication EP1377579B1 (Aventis Pharmaceuticals Inc., priority 2000, dated 2002).

One experiment addresses cdk4/cyclin D1 (Homo sapiens, UniProt P11802). As to the kind of experiment: Cyclin-dependent kinase assay, cdk4/cyclin D1. To be noted: cyclin D1/cdk4; GST-pRb substrate, 10 µM ATP. The class given is biochemical.
In another experiment the test system is MDA-MB-435. As to the kind of experiment: In vitro proliferation assay (MTT), MDA-MB-435. The format is cell-based, human. The settings on record: Homo sapiens, MDA-MB-435, MTT assay; value (SD, n) where given; read-out: MB-435 Breast (IC50 µM). In a few lines:
(§1)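 Step one: plate 1000 to 2500 cells per well and let them recover overnight. Step two: treat with compound for 3 days. Step three: add MTT, dissolve dye in DMSO, read absorbance at 570 nm and determine IC50.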
On the technique in general: Formazan colour is commonly taken as a measure of viable cells.

The next experiment has as its system NCI-H460. As to the kind of experiment: In vitro proliferation assay (MTT), NCI-H460. The class given is cell-based. To be noted: Homo sapiens, NCI-H460; MTT assay; value (SD, n) where given; read-out: H-460 Lung (IC50 µM). In outline:
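IC50 values come from live-cell estimates based on MTT reduction measured at 570 nm after 3 days of compound treatment. Cells are seeded at 1000 to 2500 per well in serum-supplemented RPMI 1640. They are stained with MTT for 2 to 4 hr at 37 C and the dye is then taken up in DMSO.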

A further experiment concerns HL-60. As to the kind of experiment: In vitro proliferation assay (MTT), HL-60. The format is cell-based. To be noted: Homo sapiens, HL-60; MTT assay; value (SD, n) where given; read-out: HL-60 Leuk. (IC50 µM). The procedure:
(§2) The proliferation of tumor cells can be measured using a tetrazolium salt-based assay known as the MTT (3-[4,5-Dimethylthiazol-2-yl]-2,5-diphenyltetrazolium bromide) assay. The proliferation test is performed essentially as described by Carmichael et al., Cancer Res. 47: 936-942, 1987. For the assay, the cell lines are plated onto 96 well plates at 1000 to 2500 cells/well (depending on the properties of the individual cell lines), left to attach and recover overnight. […] After 3 days, the cells are incubated with MTT dye (3-[4,5-Dimethylthiazol-2-yl]-2,5-diphenyltetrazolium bromide, Sigma # M5655, 10 mg/ml in Hank's Buffered Saline) to estimate the amount of live cells remaining vs. concentration for the test compounds. Specifically, MTT solution is added to a final concentration of […] and the plates incubated at 37 C for 2 to 4 hr. The MTT and culture medium is then removed from the cultures and 200 µl of DMSO is added to solubilize the dye from the cell layer. The absorbance at 570 nm is determined for each culture using a Spectramax plate reader (Molecular Devices).
(§3) IC50s were determined from the raw data from either the MTT or SRB assays.
(§4) All of the cell lines were obtained from American Type Tissue Collection, with the ATCC accession number in parentheticals. MCF-7 and MDA-MB-231 cells were grown in improved minimum essential medium (Biofluids) without phenol red, supplemented with 5 % fetal bovine serum, 0.01 mg/ml gentamicin and 3 mM L-glutamine. All of the other cell lines were grown in RPMI 1640 medium (Life Technologies) supplemented with 5 % fetal bovine serum, 0.01 mg/ml gentamicin and 3 mM L-glutamine TABLE 3

A further experiment relates to Jurkat. Description: In vitro proliferation assay (MTT), Jurkat. The format is cell-based. To be noted: Homo sapiens, MTT assay, value (SD, n) where given, read-out: Jurkat Leuk. (IC50 µM). The procedure: as §2, §3, §4
The next experiment relates to PC-3. Description: In vitro proliferation assay (MTT), PC-3. The settings on record: Homo sapiens, PC-3, MTT assay; value (SD, n) where given; read-out: PC-3 Prostate (IC50 µM). The format is cell-based, human. In a few lines:
as §1

Another experiment has as its system Colo-205. As to the kind of experiment: In vitro proliferation assay (MTT), Colo-205. To be noted: Homo sapiens, COLO 205; MTT assay; value (SD, n) where given; read-out: Colo-205 Colon (IC50 µM). The format is cell-based. In a few lines:
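After 3 days of compound exposure, MTT was added to Colo-205 cultures for 2–4 h at 37 °C. Formazan was dissolved in DMSO and absorbance read at 570 nm. Cells had been plated at 1000–2500/well and left to recover overnight; IC50 values came from the raw readings.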

The target in a further experiment is cdk1/cyclin B (Homo sapiens, UniProt P06493). Description: Cyclin-dependent kinase assay, cdk1/cyclin B. The settings on record: CDK1 IC50, nM, Histone H1, 10 µM ATP.
A further experiment addresses cdk2/cyclin E (Homo sapiens, UniProt P24941). As to the kind of experiment: Cyclin-dependent kinase assay, cdk2/cyclin E. The settings on record: CDK2 IC50, nM, GST-pRb substrate, 10 µM ATP.

Structures can show the parent of a compound that is named as a salt.

Sequence of cdk1/cyclin B (P06493 whole entry): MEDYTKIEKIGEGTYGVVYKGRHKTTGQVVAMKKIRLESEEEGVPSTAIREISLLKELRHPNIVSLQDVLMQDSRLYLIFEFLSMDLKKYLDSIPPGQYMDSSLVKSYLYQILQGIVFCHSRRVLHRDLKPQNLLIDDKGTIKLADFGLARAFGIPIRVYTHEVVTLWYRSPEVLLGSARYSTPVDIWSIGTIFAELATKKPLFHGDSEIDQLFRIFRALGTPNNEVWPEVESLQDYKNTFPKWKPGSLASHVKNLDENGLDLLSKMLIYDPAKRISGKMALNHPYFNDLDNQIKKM
Sequence of cdk1/cyclin B (P14635 whole entry partner): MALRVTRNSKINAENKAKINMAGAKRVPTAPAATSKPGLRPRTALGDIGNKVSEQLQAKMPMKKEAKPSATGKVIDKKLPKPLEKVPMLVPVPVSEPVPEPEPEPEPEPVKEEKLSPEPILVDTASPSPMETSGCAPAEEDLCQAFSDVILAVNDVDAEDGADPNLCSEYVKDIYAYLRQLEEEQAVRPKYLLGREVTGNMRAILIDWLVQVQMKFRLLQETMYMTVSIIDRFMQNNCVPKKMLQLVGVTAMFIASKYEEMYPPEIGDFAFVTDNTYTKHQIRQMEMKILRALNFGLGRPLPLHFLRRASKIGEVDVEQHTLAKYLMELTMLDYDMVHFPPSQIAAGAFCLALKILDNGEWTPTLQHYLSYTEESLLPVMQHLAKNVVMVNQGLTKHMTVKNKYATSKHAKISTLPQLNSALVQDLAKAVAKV
Sequence of cdk4/cyclin D1 (P11802 whole entry): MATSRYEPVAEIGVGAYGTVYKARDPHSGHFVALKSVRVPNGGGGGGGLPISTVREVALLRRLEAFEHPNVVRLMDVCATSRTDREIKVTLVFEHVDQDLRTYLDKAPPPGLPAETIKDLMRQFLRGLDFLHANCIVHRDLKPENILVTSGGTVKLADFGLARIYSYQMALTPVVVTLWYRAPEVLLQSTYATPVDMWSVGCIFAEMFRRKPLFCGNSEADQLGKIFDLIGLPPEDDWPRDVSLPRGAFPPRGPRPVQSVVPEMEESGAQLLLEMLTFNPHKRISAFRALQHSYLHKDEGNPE
Sequence of cdk4/cyclin D1 (P24385 whole entry partner): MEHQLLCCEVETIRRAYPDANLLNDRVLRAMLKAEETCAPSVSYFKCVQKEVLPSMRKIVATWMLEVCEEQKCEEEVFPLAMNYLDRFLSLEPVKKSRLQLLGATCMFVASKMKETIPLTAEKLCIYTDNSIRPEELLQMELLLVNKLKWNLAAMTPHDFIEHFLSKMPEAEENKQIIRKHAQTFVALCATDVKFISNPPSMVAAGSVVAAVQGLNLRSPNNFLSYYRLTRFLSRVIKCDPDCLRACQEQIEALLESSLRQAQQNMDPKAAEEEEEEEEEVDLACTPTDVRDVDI
Experimental for cdk1/cyclin B: The IC50 values for cdk1/cyclin B, cdk2/cyclin E, and cdk4/cyclin D1 inhibition are determined using the following methods: • The cdk1 sequence (accession number Y00272) is amplified by PCR and cloned into the BamHI and SalI sites of pFASTBAC1 (Life Technologies).
The cyclin B1 sequence (accession number M25753) is amplified by PCR and cloned into the BamHI and SalI sites of pFASTBAC1 (Life Technologies).
The insect cell (Sf9) expression is optimized for each of the CDK/cyclin pairs according to the manufacturer's protocols (Life Technologies). For cdk4-HA/cyclin D1-His6 an infection of 0.1 multiplicity of infection (MOI) for 48 hours gives the best expression levels of the complex as well as activity.
The viruses are added to the cells and the culture is incubated at 27°C for the desired time. The cells are harvested by centrifugation at 3000 rpm for 10 minutes. The cells are snap frozen on dry ice and stored at - 80°C.
Cell extracts are made following a standard procedure. The cell pellet is resuspended in lysis buffer (50 mM HEPES, pH 8.0, 10 mM MgCl2, 1 mM DTT, 2.5 mM EGTA, 1 mM EDTA, 10 mM β-glycerophosphate, 1 mM sodium vanadate, 1 mM sodium fluoride, 1 x Protease inhibitor cocktail). The cells are lysed using the microfluidizer (Microfluidics) for 20 minutes. Cell debris is removed by centrifugation at 100,000 x g. The cell extracts are aliquoted in 1 ml aliquots, frozen on dry ice, and stored at -80°C.
The kinase reactions are performed following a standard procedure. The enzyme and inhibitor are diluted in kinase buffer (50 mM HEPES, pH 8.0, 10 mM MgCl2, 2.5 mM EGTA, 10 mM β-glycerophosphate, 1 mM sodium vanadate, 1 mM sodium fluoride, and 1 mM DTT) and pre-incubated for 30 minutes. […] The cdk1 enzyme activity is assayed using Histone H1 (Sigma) in the presence of 10 µM ATP for 30 min at room temperature. The reactions are terminated by the addition of 50 µL of 10 mM cold ATP to stop the reactions. The reactions are transferred to a pre-soaked 96-well multi-screen plate containing 30 µL of 100% TCA per well. After incubation for one hour at room temperature, the plates are washed twice with 200 µl of 20% TCA, followed by 200 µl of 10% TCA and finally with 200 µl of 5% TCA. After drying the plates at room temperature, the filter plates are placed in adapter plates (Packard) and 40 µl of Microscint-O® (Packard) is added to each well. Top Seal A film is used to cover the plates before counting in a Top Count Scintillation Counter.
The % remained activity of the indicated Cdk/cyclin kinase complex in the presence of inhibitor is calculated by the ratio of cpm in the presence of inhibitor to cpm in the absence of inhibitor (%Activity = vi/vo x 100%).

Turning to `N[C@H]1CC[C@H](Nc2nc(NC3CCN(C(=O)Nc4ccccc4)CC3)c3ncn(C4CCCC4)c3n2)CC1` [compound 146, trans-4-[2-(4-Amino-cyclohexylamino)-9-cyclopentyl-9H-purin-6-ylamino]-piperidine-1-carboxylic acid phenylamide dihydrochloride], the IC50 (usually the midpoint of a concentration-inhibition curve) against cdk4/cyclin D1 was found to be 200 nM; in the experiment on MDA-MB-435, 0.35 µM; in the experiment with NCI-H460, 0.42 µM; in the experiment on HL-60 it was 0.04 µM; in the experiment with Jurkat it was 0.32 µM; in the experiment with PC-3 it was 0.34 µM. Moreover, the IC50 in the experiment with Colo-205 was < 0.02 µM; against cdk1/cyclin B it was 18 nM; against cdk2/cyclin E, 42 nM.

In the case of `COc1ccccc1NC(=O)N1CCC(Nc2nc(N[C@H]3CC[C@H](N)CC3)nc3c2ncn3C2CCCC2)CC1` [compound 163, trans-4-[2-(4-Amino-cyclohexylamino)-9-cyclopentyl-9H-purin-6-ylamino]-piperidine-1-carboxylic acid (2-methoxy-phenyl)-amide dihydrochloride], the IC50 against cdk4/cyclin D1 is 855 nM; with MDA-MB-435, 0.17 µM; with NCI-H460, 0.21 µM; in the experiment with HL-60, 0.05 µM; in the experiment with Jurkat, 0.28 µM; in the experiment with PC-3 it was 0.21 µM. For the same molecule, the IC50 in the experiment with Colo-205 worked out at 0.19 µM; against cdk1/cyclin B, 37 nM; against cdk2/cyclin E it was 57 nM.

Regarding `N[C@H]1CC[C@H](Nc2nc(NC3CCN(C(=O)Nc4cccc(C(F)(F)F)c4)CC3)c3ncn(C4CCCC4)c3n2)CC1` [compound 159, trans-4-[2-(4-Amino-cyclohexylamino)-9-cyclopentyl-9H-purin-6-ylamino]-piperidine-1-carboxylic acid (3-trifluoromethyl-phenyl)-amide dihydrochloride], the IC50 at cdk4/cyclin D1 was found to be 702 nM; in the experiment with MDA-MB-435, 0.2 µM; in the experiment with NCI-H460, 0.4 µM; in the experiment on HL-60, 0.07 µM; in the experiment with Jurkat, 0.41 µM; in the experiment on PC-3, 0.33 µM. Besides, the figures for the IC50 with Colo-205, against cdk1/cyclin B and on cdk2/cyclin E were 0.02 µM, 4 nM and 16 nM, respectively.

Regarding `CCOC(=O)N1CCC(Nc2nc(N[C@H]3CC[C@H](N)CC3)nc3c2ncn3C2CCCC2)CC1` [compound 93, trans-4-[2-(4-Amino-cyclohexylamino)-9-cyclopentyl-9H-purin-6-ylamino]-piperidine-1-carboxylic acid ethyl ester dihydrochloride], the IC50 was found to be 856 nM against cdk4/cyclin D1; 0.25 µM with MDA-MB-435; 0.2 µM in the experiment on NCI-H460; 0.07 µM in the experiment with HL-60; 0.16 µM with Jurkat; 0.26 µM in the experiment on PC-3. Moreover, the IC50 in the experiment on Colo-205 turned out to be 0.18 µM; against cdk1/cyclin B, 46 nM; against cdk2/cyclin E, 5 nM.

Take `N[C@H]1CC[C@H](Nc2nc(NC3CCN(C(=O)Nc4ccc(F)c(C(F)(F)F)c4)CC3)c3ncn(C4CCCC4)c3n2)CC1` [compound 203, trans-4-[2-(4-Amino-cyclohexylamino)-9-cyclopentyl-9H-purin-6-ylamino]-piperidine-1-carboxylic acid (4-fluoro-3-trifluoromethyl-phenyl)-amide dihydrochloride]: the IC50 is 733 nM on cdk4/cyclin D1; 0.22 µM in the experiment with MDA-MB-435; 0.54 µM with NCI-H460; < 0.02 µM in the experiment with HL-60; 0.5 µM in the experiment on Jurkat; 0.3 µM with PC-3. In addition, the results for the IC50 in the experiment on Colo-205, against cdk1/cyclin B and on cdk2/cyclin E were 0.17 µM, 10 nM and 51 nM, respectively.

With `N[C@H]1CC[C@H](Nc2nc(NC3CCN(C(=O)Nc4ccc(F)cc4C(F)(F)F)CC3)c3ncn(C4CCCC4)c3n2)CC1` [compound 202, trans-4-[2-(4-Amino-cyclohexylamino)-9-cyclopentyl-9H-purin-6-ylamino]-piperidine-1-carboxylic acid (4-fluoro-2-trifluoromethyl-phenyl)-amide dihydrochloride], the IC50 against cdk4/cyclin D1 was 673 nM; with MDA-MB-435, 0.22 µM; with NCI-H460, 0.33 µM; with HL-60 it was < 0.02 µM; in the experiment on Jurkat, 0.53 µM; with PC-3, 0.23 µM. For the same molecule, the IC50 in the experiment on Colo-205 came to 0.2 µM; against cdk1/cyclin B, 137 nM; against cdk2/cyclin E it was 48 nM.

As for `N[C@H]1CC[C@H](Nc2nc(NC3CCN(C(=O)Nc4ccccc4Cl)CC3)c3ncn(C4CCCC4)c3n2)CC1` [compound 169, trans-4-[2-(4-Amino-cyclohexylamino)-9-cyclopentyl-9H-purin-6-ylamino]-piperidine-1-carboxylic acid (2-chloro-phenyl)-amide dihydrochloride], the IC50 amounted to 130 nM at cdk4/cyclin D1; 0.11 µM in the experiment with MDA-MB-435; 0.15 µM in the experiment with NCI-H460; 0.04 µM in the experiment on HL-60; 0.21 µM in the experiment with Jurkat; 0.15 µM in the experiment on PC-3. Also, the IC50 in the experiment on Colo-205 amounted to 0.09 µM; against cdk1/cyclin B, 28 nM; at cdk2/cyclin E, 45 nM.

Turning to `N[C@H]1CC[C@H](Nc2nc(NC3CCN(C(=O)OCc4ccc([N+](=O)[O-])cc4)CC3)c3ncn(C4CCCC4)c3n2)CC1` [compound 94, trans-4-[2-(4-Amino-cyclohexylamino)-9-cyclopentyl-9H-purin-6-ylamino]-piperidine-1-carboxylic acid 4-nitro-benzyl ester dihydrochloride], the 50% inhibitory concentration (IC50) against cdk4/cyclin D1 came out at 827 nM; with MDA-MB-435, 0.14 µM; with NCI-H460 it was 0.14 µM; with HL-60, 0.06 µM; with Jurkat it was 0.18 µM; in the experiment with PC-3 it was 0.13 µM. Also, the figures for the IC50 in the experiment with Colo-205, on cdk1/cyclin B and at cdk2/cyclin E were 0.07 µM, 27 nM and 69 nM, respectively.

Consider `N[C@H]1CC[C@H](Nc2nc(NC3CCN(S(=O)(=O)c4cccc5cccnc45)CC3)c3ncn(C4CCCC4)c3n2)CC1` [compound 144, trans-N^2-(4-Amino-cyclohexyl)-9-cyclopentyl-N^6-[1-(quinoline-8-sulfonyl)-piperidin-4-yl]-9H-purine-2,6-diamine dihydrochloride], for which the IC50 came out at 75 nM at cdk4/cyclin D1; 0.16 µM in the experiment with MDA-MB-435; 0.33 µM with NCI-H460; 0.12 µM in the experiment with HL-60; 0.25 µM with Jurkat; 0.18 µM with PC-3. The figures for the IC50 in the experiment with Colo-205, against cdk1/cyclin B and against cdk2/cyclin E were 0.05 µM, 2 nM and 2 nM, respectively.

For the molecule `CCOC(=O)c1ccccc1NC(=O)N1CCC(Nc2nc(N[C@H]3CC[C@H](N)CC3)nc3c2ncn3C2CCCC2)CC1` [compound 199, trans-2-[(1-{4-[2-(4-Amino-cyclohexylamino)-9-cyclopentyl-9H-purin-6-ylamino]-piperidin-1-yl}-methanoyl)-amino]-benzoic acid ethyl ester dihydrochloride], the IC50 at cdk4/cyclin D1 is 670 nM; in the experiment with MDA-MB-435 it was 0.26 µM; in the experiment on NCI-H460, 0.18 µM; with HL-60, 0.06 µM; with Jurkat, 0.34 µM; with PC-3, 0.26 µM. The IC50 with Colo-205 was found to be 0.06 µM; at cdk1/cyclin B, 70 nM; at cdk2/cyclin E it was 20 nM.
